Measurements taken from patent publication US9072698B2, “Method for screening anti-cancer compounds inhibiting function of TM4SF5 and anti-cancer composition containing chalcone compounds” (Seoul National University Industry Foundation, priority 2006, dated 2015).
In brackets after ≈: the same amount, converted by molar mass.

Assays:
SNU449Tp cells [1] = assay: Comparison of TSAHC and analogues: cell morphology and multilayer growth by optical microscope (FIG. 69); assay type: cell-based, human; settings: 20 μM, 24 hr treatment
Description: TSAHC and its structural analogues were compared for their effects on TM4SF5-mediated events. Dimethyl sulfoxide (DMSO) and chalcone analogues, used in this test, have the following chemical structure.
SNU449 Cp cells and SNU449Tp cells were plated onto 6-well plates and treated with the above compounds at 20 μM for 24 hrs. Cells were monitored for changes in cell morphology using an optical microscope.

[2] = tested on: HCT15 (colon adenocarcinoma); assay: In vitro cytotoxicity, sulforhodamine B (SRB) method, HCT15; assay type: cell-based; settings: Homo sapiens; HCT-15, SRB method; read-out: cytotoxicity (ED50) HCT-15
Method in brief: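 Cells grown in RPMI 1640 with 10% FCS at 37 °C, 5% CO2 were exposed to compounds at 30, 10, 3, 1 and 0.3 μg/ml final, with DMSO below 0.5%. Cytotoxicity was read by the standard NCI sulforhodamine B protein-staining method.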

[3] = tested on: p27^kip1, pS^10p27^kip1, pY^577FAK and α-SMA; assay: Western blotting for TM4SF5-mediated protein expression (FIG. 46); assay type: cell-based, human
Description: Cell lysates, obtained under various experimental conditions, were prepared using RIPA buffer after cells under various conditions were washed with PBS. In special cases, employed cells were transfected with given expression vectors or infected with an adenovirus expressing an shRNA to TM4SF5 or a siRNA to p27^kip1. In addition, cells treated with 10 μM of cycloheximide for a given period of time were used. For such cell lysates, protein was quantified, and the same amounts of protein were used. Western blotting was performed using antibodies to phospho-Y^577FAK, phospho-Y^416Src, c-Src, RhoA, p120^ctn, β-catenin, pS^10p27^kip1, FAK, E-cadherin, ZO1, Rac1, p190RhoGAP, p27^kip1, GRAF, hKIS, desmoplakin, α-tubulin, α-catenin, and α-smooth muscle actin (α-SMA).

SNU449Tp cells [4] = assay: BrdU immunofluorescent staining, S-phase progression (FIG. 44); assay type: cell-based, human; settings: 20 μM, BrdU for 24 hrs
Description: (§1) When cells were transfected with given specific genes or infected with various viruses, they were used after being cultured for a given period of time. Cells treated with 10 mM lysophosphatidic acid (LPA) were used 1 hour after being attached to cover glasses. Immunofluorescent staining was carried out by preparing a slide for fluorescent analysis through incubation with a primary antibody against a target protein, washing out unbound antibody molecules, incubation with a fluorescein-conjugated secondary antibody and washing out unbound antibody molecules, and actin filament staininh was carried out with rhodamine-conjugated phalloidin. Antibodies used included antibodies against E-cadherin, β-catenin, FLAG, 4′-6-diamidino-2-phenylindole (DAPI), 5-brorno-2′-deoxy-uridine (BrdU), p27^kip1, ZO1 (zonula occludens-1), and the like. Immunofluorescent stained cover glasses were placed on slides and observed under a fluorescence microscope or a confocal laser scanning microscope.

cytosolic p27^kip1 = assay: Immunofluorescent staining for p27^kip1 (FIG. 47); assay type: cell-based, human; settings: 449Tp cells
Description: as §1

SNU449Tp cells [5] = assay: Invasion into Matrigel, Transwell chamber (FIG. 67); assay type: cell-based, human; settings: cultured for 24 hrs
Description: The invasiveness of SNU449Tp cells was also analyzed using Boyden Transwell chamber 24 well plates, as mentioned in Example 7-(1). Matrigel was added to the insert of the plates, and was allowed to solidify at 37° C. Cells were cultured as described above. After 24 hrs, cells on the upper surface of the membrane of the insert chamber were completely removed by wiping with a cotton swab. As a result, after […], cells that had invaded the lower side of the membrane were stained.
According to the same method described above, cells were seeded in the Transwell chamber, coated with a thick layer of Matrigel, and cultured for 24 hrs. Cells that invaded the Matrigel were counted, and the results are shown as a graph.

TM4SF5 = target: T1, TM4SF5 (Homo sapiens, UniProt O14894); assay: Western blotting of lysates treated with PNGase F and Endo H (FIG. 50); assay type: cell-based
T1 construct: expressed in transfected cells; host or cells: SNU449 hepatocarcinoma cells stably expressing TM4SF5 (the embodiment)
T1 sequence (O14894 1-197): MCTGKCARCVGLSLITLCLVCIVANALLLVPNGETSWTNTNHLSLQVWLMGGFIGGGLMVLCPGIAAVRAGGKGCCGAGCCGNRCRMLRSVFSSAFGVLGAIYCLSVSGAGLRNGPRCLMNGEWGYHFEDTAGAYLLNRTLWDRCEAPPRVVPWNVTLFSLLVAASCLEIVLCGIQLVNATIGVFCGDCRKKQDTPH

[6] = tested on: cells endogenously expressing TM4SF5; assay: Growth/proliferation of cells endogenously expressing TM4SF5 (FIG. 51); assay type: cell-based
RhoA = assay: In vitro RhoA activity assay (FIG. 48); assay type: cell-based, human; settings: TM4SF5-expressing cells
Description: In order to investigate signaling pathways involved in the aforementioned morphological change, TM4SF5-expressing cell lines (SNU449Tp, T3, T7 and T16), established in Example 1, were assessed for expression levels of FAK phosphorylated at Tyr577 (pY^577FAK) and c-Src phosphorylated at Tyr 416 (pY^416cSrc), Rac1 activity and RhoA activity. Whole cell lysates were prepared and subjected to Western blot analysis, which was performed with each antibody against proteins indicated in FIGS. 3 and 5. The activity of RhoA and Rac1 was monitored by pull-down of RhoA and Rac1 from the cell lysates in vitro.

SNU449Tp cells [7] = assay: Cell growth over time of TM4SF5-expressing cells (FIG. 43, right); assay type: cell-based, human; settings: TSAHC at given concentrations
Description: Arrows indicate the overlapping nuclei of cells undergoing cell division. […] In addition, in order to measure the growth rates of the cells, 5×10^4 cells were plated onto 6-well plates and counted every 12 hrs. The results are expressed as a graph. […] This was observed even at a low cell density. That is, among cells at a low density, TM4SF5-expressing cells proliferated through cell division, during which two nuclei overlapped each other.

## Cc1ccc(S(=O)(=O)Nc2ccc(C(=O)/C=C/c3ccc(O)cc3)cc2)cc1 [Compound 1, 4′-(p-toluenesulfonylamino)-4-hydroxychalcone]
SNU449Tp cells [1]
  TM4SF5-mediated multilayer growth: effectively stimulate the growth of TM4SF5-expressing cells, not in a multilayer but in a monolayer arrangement
  cell morphology: changed the cell morphology into the same shape as that of SNU449 control cells not expressing TM4SF5
[2]
  IC50: 35 µg/mL (≈ 89 µM)
[3]
  expression levels of p27^kip1, pS^10p27^kip1, pY^577FAK and α-SMA: effectively reduce TM4SF5-mediated high expression levels of p27^kip1, pS^10p27^kip1, pY^577FAK and α-SMA
SNU449Tp cells [4]
  S-phase progression: inhibited S-phase progression
Cytosolic p27^kip1
  cytosolic p27^kip1 levels: decrease in cytosolic p27^kip1 levels
SNU449Tp cells [5]
  invasion into Matrigel: effectively inhibit invasion into Matrigel
TM4SF5
  sensitivity of N-linked glycosylated region of TM4SF5 to PNGase F: increase the sensitivity of an N-linked glycosylated region of TM4SF5 to PNGase F
[6]
  growth or proliferation of cells endogenously expressing TM4SF5: inhibited the growth or proliferation of cells endogenously expressing TM4SF5
RhoA
  RhoA activity: restored the reduced RhoA activity in TM4SF5-expressing cells
SNU449Tp cells [7]
  growth over time of TM4SF5-expressing cells: reduced linear growth over time in a manner dependent on TSAHC concentrations
